According to article PMC11035696, “Prospective de novo drug design with deep interactome learning” (Nature Communications, 2024):
“And” between values parts separate entries of the source, which are not always exact repeats. Identical values can stand only once.

Key:
Format in all cases: cell-based
human PPARγ = molecular target: T1, human PPARγ (Homo sapiens, UniProt P37231); test: Gal4-hybrid reporter gene assay, PPARγ activation
T1 construct: expressed in transfected cells; host or cells: HEK293T
T1 sequence (P37231 238-503 limits assumed): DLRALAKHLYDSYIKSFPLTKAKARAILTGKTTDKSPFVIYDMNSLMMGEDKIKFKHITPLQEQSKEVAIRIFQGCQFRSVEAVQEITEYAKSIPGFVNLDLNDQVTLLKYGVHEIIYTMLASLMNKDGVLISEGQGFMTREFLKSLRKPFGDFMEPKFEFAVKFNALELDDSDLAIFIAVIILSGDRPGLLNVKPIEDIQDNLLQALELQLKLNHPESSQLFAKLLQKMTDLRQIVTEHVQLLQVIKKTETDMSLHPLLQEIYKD
Description: (§1) Compounds 1–3 were characterized in a hybrid reporter gene assay for their agoniztic effect on human nuclear receptors PPARα/γ/δ, RXRα, FXRα, RARα in HEK293T cells. Compound 1 was tested in an isothermal titration calorimetry (ITC) assay to measure direct binding affinity to the ligand-binding domain of PPARγ. ADME properties were measured in standardized assays at Roche.
(§2) PPAR activation was determined in uniform Gal4-hybrid reporter gene assays for the PPARα, PPARγ and PPARδ isoforms in HEK293T cells (German Collection of Microorganisms and Cell Culture GmbH, DSMZ) which were transiently transfected with pFR-Luc (Stratagene, La Jolla, CA, USA; reporter) and pRL-SV40 (Promega, Madison, WI, USA; internal control) and one pFA-CMV-hPPAR-LBD[97] clone, coding for the hinge region and ligand binding domain of the canonical isoform of human PPARα, PPARγ, PPARδ or respectively. Cells were cultured in Dulbecco’s modified Eagle’s medium (DMEM), high glucose supplemented with 10% fetal calf serum (FCS), sodium pyruvate (1 mM), penicillin (100 U ⋅ ml^-1), and streptomycin (100 μg ⋅ ml^-1) at 37 °C and 5% CO2 and seeded in 96-well plates (3 × 10^4 cells per well). After 24 h, medium was changed to Opti-MEM without supplements and cells were transiently transfected using Lipofectamine LTX reagent (Invitrogen) according to the manufacturer’s protocol. Five hours after transfection, cells were incubated with the test compounds in Opti-MEM supplemented with penicillin (100 U ⋅ ml^-1), streptomycin (100 μg ⋅ ml^-1) and 0.1% DMSO for 16 h before luciferase activity was measured using the Dual-Glo Luciferase Assay System (Promega) according to the manufacturer’s protocol on a Tecan Spark luminometer (Tecan Deutschland GmbH, Germany). Firefly luminescence was divided by Renilla luminescence and multiplied by 1000 resulting in relative light units (RLU) to normalize for transfection efficiency and cell growth. Fold activation was obtained by dividing the mean RLU of a test compound by the mean RLU of the untreated control. All samples were tested in at least three biologically independent experiments in duplicates. For dose-response curve fitting and calculation of EC50 values, the equation “[Agonist] versus response (variable slope—four parameters)” was used in GraphPad Prism (version 7.00, GraphPad Software, La Jolla, CA, USA) with fold activation data. The reference agonizts GW7647 (PPARα)[98],[99], pioglitazone (PPARγ)[100],[101] and L165,041 (PPARδ)[102],[103] were used to validate the assays and to monitor assay performance. Nuclear receptor selectivity profiling was performed with corresponding pFA-CMV-hNR-LBD clones and suitable reference agonizts on RARα (pFA-CMV-hRARα-LBD[104], 1 μM tretinoin), LXRα (pFA-CMV-hLXRα-LBD[104], 1 μM TO901317) and RXRα (pFA-CMV-h RXRα-LBD[105], 1 μM Bexarotene).

human PPARδ = molecular target: T2, human PPARδ (Homo sapiens, UniProt Q03181); test: Gal4-hybrid reporter gene assay, PPARδ activation; details: result in words
T2 construct: expressed in transfected cells; host or cells: HEK293T
T2 sequence (Q03181 211-439 limits assumed): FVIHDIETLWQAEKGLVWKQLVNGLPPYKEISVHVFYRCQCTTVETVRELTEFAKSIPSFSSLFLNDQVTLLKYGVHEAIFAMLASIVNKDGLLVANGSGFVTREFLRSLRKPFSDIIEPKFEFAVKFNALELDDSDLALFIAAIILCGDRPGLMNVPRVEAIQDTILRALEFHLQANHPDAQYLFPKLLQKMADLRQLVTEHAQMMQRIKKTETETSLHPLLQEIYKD
Description: as §1
PPAR activation was determined in uniform Gal4-hybrid reporter gene assays for the PPARα, PPARγ and PPARδ isoforms in HEK293T cells (German Collection of Microorganisms and Cell Culture GmbH, DSMZ) which were transiently transfected with pFR-Luc (Stratagene, La Jolla, CA, USA; reporter) and pRL-SV40 (Promega, Madison, WI, USA; internal control) and one pFA-CMV-hPPAR-LBD[97] clone, coding for the hinge region and ligand binding domain of the canonical isoform of human PPARα, PPARγ, PPARδ or respectively. Cells were cultured in Dulbecco’s modified Eagle’s medium (DMEM), high glucose supplemented with 10% fetal calf serum (FCS), sodium pyruvate (1 mM), penicillin (100 U ⋅ ml^-1), and streptomycin (100 μg ⋅ ml^-1) at 37 °C and 5% CO2 and seeded in 96-well plates (3 × 10^4 cells per well). After 24 h, medium was changed to Opti-MEM without supplements and cells were transiently transfected using Lipofectamine LTX reagent (Invitrogen) according to the manufacturer’s protocol. Five hours after transfection, cells were incubated with the test compounds in Opti-MEM supplemented with penicillin (100 U ⋅ ml^-1), streptomycin (100 μg ⋅ ml^-1) and 0.1% DMSO for 16 h before luciferase activity was measured using the Dual-Glo Luciferase Assay System (Promega) according to the manufacturer’s protocol on a Tecan Spark luminometer (Tecan Deutschland GmbH, Germany). Firefly luminescence was divided by Renilla luminescence and multiplied by 1000 resulting in relative light units (RLU) to normalize for transfection efficiency and cell growth. Fold activation was obtained by dividing the mean RLU of a test compound by the mean RLU of the untreated control. […]

human PPARα = molecular target: T3, human PPARα (Homo sapiens, UniProt Q07869); test: Gal4-hybrid reporter gene assay, PPARα activation; details: for Fold PPARα activation: individual replicates, source data Fig. 5
T3 construct: expressed in transfected cells; host or cells: HEK293T
T3 sequence (Q07869 239-466 limits assumed): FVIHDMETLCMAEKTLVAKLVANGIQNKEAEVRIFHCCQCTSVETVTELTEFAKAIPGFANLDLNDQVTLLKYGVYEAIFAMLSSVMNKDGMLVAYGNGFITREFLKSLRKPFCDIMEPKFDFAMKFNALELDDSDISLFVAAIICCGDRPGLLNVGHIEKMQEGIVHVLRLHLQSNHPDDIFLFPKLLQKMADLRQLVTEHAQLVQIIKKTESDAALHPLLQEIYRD
Description: as §1, §2

[1] = molecular target: T4, retinoid X receptor (RXR)α (Homo sapiens, UniProt P19793); test: Nuclear receptor selectivity profiling, hybrid reporter gene assay, RXRα
T4 construct: RXRα (pFA-CMV-h RXRα-LBD[105], 1 μM Bexarotene); expressed in transfected cells; host or cells: HEK293T
T4 sequence (P19793 227-458 limits assumed): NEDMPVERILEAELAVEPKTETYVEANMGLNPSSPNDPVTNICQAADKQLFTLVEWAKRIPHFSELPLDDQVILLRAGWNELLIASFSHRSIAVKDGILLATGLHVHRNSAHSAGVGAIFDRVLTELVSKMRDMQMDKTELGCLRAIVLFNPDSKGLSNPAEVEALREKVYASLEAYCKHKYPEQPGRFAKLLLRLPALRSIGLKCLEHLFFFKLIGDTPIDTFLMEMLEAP
Description: as §1, §2

liver X receptor (LXR)α = molecular target: T5, liver X receptor (LXR)α (Homo sapiens, UniProt Q13133); test: Nuclear receptor selectivity profiling, hybrid reporter gene assay, LXRα
T5 construct: LXRα (pFA-CMV-hLXRα-LBD[104], 1 μM TO901317); expressed in transfected cells; host or cells: HEK293T
T5 sequence (Q13133 209-447 limits assumed): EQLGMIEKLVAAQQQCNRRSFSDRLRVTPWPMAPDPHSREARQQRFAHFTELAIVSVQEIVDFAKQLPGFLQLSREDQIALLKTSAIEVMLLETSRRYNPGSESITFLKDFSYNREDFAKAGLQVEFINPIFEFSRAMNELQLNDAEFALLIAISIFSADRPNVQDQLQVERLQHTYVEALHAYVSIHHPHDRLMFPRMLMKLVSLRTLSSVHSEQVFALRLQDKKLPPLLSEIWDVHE
Description: as §2

[2] = molecular target: T6, retinoic acid receptor (RAR)α (Homo sapiens, UniProt P10276); test: Nuclear receptor selectivity profiling, hybrid reporter gene assay, RARα
T6 construct: RARα (pFA-CMV-hRARα-LBD[104], 1 μM tretinoin); expressed in transfected cells; host or cells: HEK293T
T6 sequence (P10276 183-417 limits assumed): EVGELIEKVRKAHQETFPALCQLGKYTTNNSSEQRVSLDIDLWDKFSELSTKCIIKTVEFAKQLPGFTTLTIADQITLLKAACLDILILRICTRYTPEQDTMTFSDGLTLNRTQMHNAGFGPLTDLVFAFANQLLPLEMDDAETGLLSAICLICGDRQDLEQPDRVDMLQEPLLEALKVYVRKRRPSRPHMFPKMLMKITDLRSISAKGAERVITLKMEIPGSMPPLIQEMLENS
Description: as §1, §2

With `COc1ccc(Oc2ccc3c(c2)ncn3CCOc2ccc(CCC(=O)O)cc2)cc1` [Compound 3] the “PPARγ reporter activation, replicate values (Figure 5)” value (“PPARγ reporter activation” for short) (human PPARγ; conc. 0,00000100 M) was 3,029 and 3,245 and 3,909 and 5,555 and 6,269 and 5,771 and 5,328, the “PPARγ reporter activation” value (human PPARγ; conc. 0,00000200 M) was 8,955 and 11,943 and 12,245 and 11,406 and the “PPARγ reporter activation” value (human PPARγ; conc. 0,00000300 M) was 17,358 and 14,143 and 17,954. The “PPARγ reporter activation” value (human PPARγ; conc. 0,00001000 M) was 19,221 and 19,629 and 17,043 and 19,534 and 21,221 and 20,328 and 19,624, the “PPARγ reporter activation” value (human PPARγ; conc. 1,00000000e-007 M) was 0,766 and 0,976 and 1,313 and the “PPARγ reporter activation” value (human PPARγ; conc. 1,00000000e-008 M) was 0,785 and 0,961 and 1,208. The “PPARγ reporter activation” value (human PPARγ; conc. 3,00000000e-007 M) was 1,068 and 1,571 and 1,294 and 2,247 and 2,063 and 1,947 and 1,524, the EC50 (human PPARγ; hybrid reporter gene assay, HEK293T cells, read-out: EC50(PPARγ)) was 1.8 ± 0.1 µM and the “activity on PPARδ” value (human PPARδ) was “no discernible activity”. The “Fold PPARα activation” value (human PPARα; conc. 0,00000100 M) was 1,270 and 1,357 and 1,503, the “Fold PPARα activation” value (human PPARα; conc. 0,00000300 M) was 2,302 and 2,145 and 2,016 and the “Fold PPARα activation” value (human PPARα; conc. 0,00000600 M) was 4,397 and 3,518 and 3,421. For the same compound, the “Fold PPARα activation” value (human PPARα; conc. 0,00001000 M) was 4,249 and 4,283 and 3,276, the “Fold PPARα activation” value (human PPARα; conc. 1,00000000e-007 M) was 0,978 and 1,133 and 1,009 and the “Fold PPARα activation” value (human PPARα; conc. 1,00000000e-008 M) was 1,321 and 1,277 and 1,261. The “Fold PPARα activation” value (human PPARα; conc. 3,00000000e-007 M) was 1,112 and 1,105 and 1,170, the EC50 (human PPARα; hybrid reporter gene assay, HEK293T cells) was 3.4 ± 0.3 µM and the “RXRα reporter activation, replicate values (DMSO ctrl = 1,000)” value ([1]; 3 µM) was 1,197 and 1,077 and 1,363. For the same compound, the “RXRα reporter activation, replicate values (DMSO ctrl = 1,000)” value ([1]; 10 µM) was 1,155 and 1,200 and 1,295, the “LXRα reporter activation, replicate values (DMSO ctrl = 1,000)” value (liver X receptor (LXR)α; 3 µM) was 2,211 and 1,139 and 1,444 and the “LXRα reporter activation, replicate values (DMSO ctrl = 1,000)” value (liver X receptor (LXR)α; 10 µM) was 2,149 and 1,346 and 1,762. For the same compound, the “RARα reporter activation, replicate values (DMSO ctrl = 1,000)” value ([2]; 3 µM) was 1,594 and 0,817 and 1,542 and the “RARα reporter activation, replicate values (DMSO ctrl = 1,000)” value ([2]; 10 µM) was 1,322 and 1,046 and 1,521.
